Test results: patent publication US10980776B2, “Synergistic pharmaceutical combination for the treatment of squamous cell carcinoma of head and neck” (Piramal Enterprises Limited, priority 2011, dated 2021)
Like-named read-outs stand apart in the source and are kept apart here.

Key:
[1] = tested on: Detroit-562 cells; experiment: CCK-8 cytotoxicity assay, determination of inhibitory concentrations in Detroit-562 cells; format: cell-based; conditions: 72 hr
Protocol: (§1) Logarithmically growing cells were plated at a density of 3×10^3 cells/well and allowed to recover overnight. […] After 72 hours, cell toxicity was determined by CCK-8 (Cell Counting Kit-8) reagent (Dojindo Molecular Technologies, Japan); WST-8 (2-(2-methoxy-4-nitrophenyl)-3-(4-nitrophenyl)-5-(2, 4-disulfophenyl)]-2H-tetrazolium, monosodium salt) assay. In accordance with the manufacturer's instructions, 5 μl/well CCK-8 reagent was added and plates were incubated for 2 hours. The toxicity was determined by measuring the absorbance on Tecan Sapphire multi-fluorescence micro-plate reader (Tecan, Germany, GmbH) at a wavelength of 450 nm corrected to 650 nm and normalized to controls.
(§2) CCK-8 allows convenient assays using Dojindo's tetrazolium salt, WST [8[(2-(2-methoxy-4-nitrophenyl)-3-(4-nitrophenyl)-5-(2,4-disulfophenyl)-2H-tetrazolium, monosodium salt], which produces a water-soluble formazan dye upon bioreduction in the presence of an electron carrier, 1-Methoxy PMS. CCK-8 solution is added directly to the cells; no pre-mixing of components is required. CCK-8 is a sensitive nonradioactive colorimetric assay for determining the number of viable cells in cell proliferation and cytotoxicity assays. WST-8 is bio-reduced by cellular dehydrogenases to an orange formazan product that is soluble in tissue culture medium. The amount of formazan produced is directly proportional to the number of living cells. The detection sensitivity of cell proliferation assays using WST-8 is higher than assays using the other tetrazolium salts such as MIT, XTT, MTS or WST-1. Optical Density was determined at measurement wavelength of 450 nm and reference wave length of 630 nm.
(§3) The cells were seeded at a density of 3000 cells/well, in a 200 μL in tissue culture grade 96 well plate and were allowed to recover for 24 hrs in a humidified 5%±0.2 CO2 incubator at 37° C.±0.5° C. […] The final DMSO concentration was 0.5% in wells. Plates were incubated for 48 hrs in humidified 5%±0.2 CO2 incubator at 37±0.5° C. After 48 hrs the plates were removed from CO2 incubator and 5 μL of Cell counting Kit (CCK-8) per well was added. The same plate was kept at 37° C. for 3 hrs, and allowed to come to room temperature. The absorbance at a wavelength of 450 nm was read on Tecan safire reader. The percent cytotoxicity was calculated using the following formula.

[2] = tested on: FADU cells; experiment: CCK-8 cytotoxicity assay, determination of inhibitory concentrations in FADU cells; format: cell-based, human; conditions: 72 hr
Protocol: as §1, §2, §3

[3] = tested on: FaDu (hypopharyngeal squamous cell carcinoma) xenografts; experiment: In vivo efficacy in human head and neck cancer FaDu xenografts; conditions: FaDu xenografts in SCID mice; end of treatment, after 18 days; Compound A 35 mpk i.p. once daily 5 days a week; cisplatin 1 mpk i.p. once a week; cetuximab 2.5 mpk twice a week; 3 weeks
Protocol: In-vivo studies were carried out according to the method described in Clinical cancer search, 2003, 9, 6052-6061; the disclosure of which is incorporated herein by reference for the teaching of the assay.
The in-vivo studies were carried out using Xenograft models in Severe combined immune deficiency (SCID) mice strain—CbySmn.CB17-Prkdcscid/J, by the method described below. The statistically significant number of mice per group (n=6) was chosen in order to be able to statistically evaluate the study data.
FaDu cells were grown in MEM (minimum essential media) medium containing non-essential amino acids and 10% fetal calf serum in 5% CO2 incubator at 37° C. Cells were pelleted by centrifugation at 1000 rpm for 10 minutes. Cells were resuspended in pre-chilled mixture of saline to get a count of 6×10^6 cells per mL; 0.2 ml of this cell suspension was kept on ice and injected by subcutaneous (s.c.) route in SCID mice. Mice were observed every alternate day for palpable tumor mass. Once the tumor size reached a size of 3-5 mm in diameter, animals were randomized into respective groups of treatment and untreated controls. The treatment groups comprised of 5 groups viz. […] The control group received no treatment.
Measurement of tumor was done every 2-3 days apart. Growth inhibition percentage (GI %) was calculated at the end of experiment.

[4] = tested on: Detroit-562 cells; experiment: Combination studies (single and sequential combination dosing), % cytotoxicity in Detroit-562 cells; conditions: for % Cytotoxicity: Detroit-562; for cytotoxicity at 1 µM / cytotoxicity at 1.8 µM: Homo sapiens, Detroit 562, Detroit-562
Protocol: as §1, §2
(§4) Sorafenib in the following dose of final concentration 1.8 μM and compound A in the following doses of final concentration 0.5 μM, 1.3 μM and 12.1 μM were analyzed in single dose and in all possible combinations of the dose range for the two anticancer agents mentioned above. The sequence of treatment is as follows; Detroit-562 cells were treated with sorafenib for 0 to 24 hrs. At the end of 24 hrs the cells were washed two times with plain MEM medium. Fresh MEM with 10% serum (200 μL/well) was added, followed by treatment with compound A from 24 hrs to 96 hrs.
as §4, with “compound B” for “compound A”, “concentration 2.7” for “concentration 0.5”, “μM, 14.1” for “μM, 1.3”, “and 25.2” for “and 12.1”, “follows; the” for “follows;”
as §4, with “Lapatinib” for “Sorafenib”, “1” for “1.8”, “follows; the” for “follows;”, “lapatinib” for “sorafenib”
(§5) Lapatinib in the following dose of final concentration 1.0 μM and compound B in the following doses of final concentration 2.7 μM, 14.1 μM and 25.2 μM were analyzed in single dose and in all possible combinations of the dose range for the two drugs mentioned above. The sequence of treatment is as follows; the Detroit-562 cells were treated with lapatinib for 0 to 24 hrs. At the end of 24 hrs the cells were washed two times with plain MEM medium. Fresh MEM with 10% serum (200 μL/well) was added, followed by treatment with compound A from 24 hrs to 96 hrs.

[5] = tested on: FADU cells; conditions: FADU
[6] = tested on: SCC-25 cells; experiment: CCK-8 cytotoxicity assay, determination of inhibitory concentrations in SCC-25 cells; format: cell-based; conditions: for IC90 / IC50: Homo sapiens
Protocol: as §1, §2, §3

[7] = tested on: SCC-25 cells; experiment: Combination studies (single and sequential combination dosing), % cytotoxicity in SCC-25 cells; conditions: Homo sapiens, SCC-25, SCC-25
Protocol: as §1, §2
Sorafenib in the following dose of final concentration 0.18 μM and compound A in the following doses of final concentration 0.1 μM, 0.4 μM and 4.1 μM were analyzed in single dose and in all possible combinations of the dose range for the two anticancer agents mentioned above. The sequence of treatment is as follows; the SCC-25 cells were treated with sorafenib for 0 to 24 hrs. At the end of 24 hrs the cells were washed two times with plain MEM (minimum essential media) medium. Fresh MEM with 10% serum (200 μL/well) was added, followed by treatment with compound A from 24 hrs to 96 hrs.
Sorafenib in the following dose of final concentration 0.18 μM and compound B in the following doses of final concentration 0.2 μM, 1.1 μM and 4.8 μM were analyzed in single dose and in all possible combinations of the dose range for the two anticancer agents mentioned above. The sequence of treatment is as follows; the SCC-25 cells were treated with sorafenib for 0 to 24 hrs. At the end of 24 hrs the cells were washed two times with plain MEM medium. Fresh MEM with 10% serum (200 μL/well) was added, followed by treatment with compound B from 24 hrs to 96 hrs.
as §5, with “0.2” for “1.0”, “A” for “B”, “0.2” for “2.7”, “0.5” for “14.1”, “3.3” for “25.2”, “SCC-25” for “Detroit-562”
as §5, with “0.2” for “1.0”, “0.2” for “2.7”, “1.1” for “14.1”, “4.8” for “25.2”, “SCC-25” for “Detroit-562”

[8] = tested on: FADU cells; experiment: cells; conditions: Homo sapiens
[9] = single agent at IC10, docetaxel study
[10] = single agent at IC30, docetaxel study
[11] = single agent at IC50, cisplatin/5-FU/compound A study
[12] = single agent at IC70, cisplatin/5-FU/compound A study

| SMILES | IC10 [1] [µM] | IC30 [1] [µM] | IC70 [1] [µM] | IC10 [2] [µM] | IC30 [2] [µM] | IC70 [2] [µM] | IC50 ([1]; Homo sapiens) [µM] | IC90 ([1]; Homo sapiens) [µM] | IC50 ([2]; Homo sapiens) [µM] | IC90 ([2]; Homo sapiens) [µM] | IC90 ([6]; SCC-25 cells, 72 hr) [µM] | IC30 ([6]; SCC-25 cells, 72 hr) [µM] | IC70 ([6]; SCC-25 cells, 72 hr) [µM] | further results |
| --- | --- | --- | --- | --- | --- | --- | --- | --- | --- | --- | --- | --- | --- | --- |
| N.N.[Cl][Pt][Cl] [Cisplatin] | 0.3 | 3 | 43.2 | 0.25 | 3 | 30 | – | – | – | – | – | – | – | IC50 [1]: 14.6 µM; IC90 [1]: 74.5 µM; IC50 [2]: 8.3 µM; IC90 [2]: 74 µM; Tumor Growth inhibition (%) [3]: 4% |
| O=c1[nH]cc(F)c(=O)[nH]1 [Compound 5-FU] | 0.31 | 1.1 | 17.6 | 0.31 | 2.3 | 22.4 | 6.3 | 33.4 | 11.6 | 38.3 | – | – | – | % Cytotoxicity [4, 9]: 9.49%; % Cytotoxicity [4, 10]: 15.39%; % Cytotoxicity [4, 11]: 16.21%; % Cytotoxicity [4, 12]: 19.54%; % Cytotoxicity ([4]; single agent at IC90, cisplatin/5-FU/compound A study): 12.59%; % Cytotoxicity [5, 9]: 6.81%; % Cytotoxicity ([5]; single agent at IC30, cisplatin/5-FU/compound A study): 17.81%; % Cytotoxicity [5, 10]: 19.29%; % Cytotoxicity [5, 11]: 21.1%; % Cytotoxicity [5, 12]: 28.6% |
| CC(=O)O[C@@]12CO[C@@H]1C[C@H](O)[C@@]1(C)C(=O)[C@H](O)C3=C(C)[C@@H](OC(=O)[C@H](O)[C@@H](NC(=O)OC(C)(C)C)c4ccccc4)C[C@@](O)([C@@H](OC(=O)c4ccccc4)[C@H]21)C3(C)C [Docetaxel] | 0.009 | 0.3 | 8.7 | 0.003 | 0.06 | 0.71 | 0.85 | 21.8 | 0.16 | 35.6 | – | – | – | – |
| C#Cc1cccc(Nc2ncnc3cc(OCCOC)c(OCCOC)cc23)c1 [Erlotinib] | – | 1.4 | 6.3 | – | 0.9 | 30.7 | 2.3 | 10.7 | 10.2 | 63 | – | – | – | – |
| CS(=O)(=O)CCNCc1ccc(-c2ccc3ncnc(Nc4ccc(OCc5cccc(F)c5)c(Cl)c4)c3c2)o1 [Lapatinib, N-(3-chloro-4-{[(3-fluorophenyl)methyl]oxy}phenyl)-6-[5-({[2-(methylsulfonyl)ethyl]amino}methyl)-2-furanyl]-4-quinazolinaminebis(4-methylbenzenesulfonate)monohydrate] | – | 1.0 | 7.6 | – | 0.8 | 8.7 | 3.9 | 12.6 | 2.6 | 14.3 | 9.9 | 0.2 | 3.3 | IC50 ([6]; SCC-25 cells, 72 hr, read-out: IC50): 0.5 µM; cytotoxicity at 0.2 µM ([7]; single agent at IC30 (lapatinib 0.2 μM; compound A 0.2 μM)): 17%; cytotoxicity at 0.2 µM ([7]; single agent at IC30 (lapatinib 0.2 μM; compound B 0.2 μM)): 17%; cytotoxicity at 1 µM ([4]; single agent at IC30 (lapatinib 1 μM; compound A 0.5 μM)): 16%; cytotoxicity at 1 µM ([4]; single agent at IC30 (lapatinib 1.0 μM; compound B 2.7 μM)): 16%; cytotoxicity at 0.8 µM ([8]; single agent at IC30 (lapatinib 0.8 μM; compound A 0.2 μM)): 19%; cytotoxicity at 0.8 µM ([8]; single agent at IC30 (lapatinib 0.8 μM; compound B 2.3 μM)): 19% |
| CNC(=O)c1cc(Oc2ccc(NC(=O)Nc3ccc(Cl)c(C(F)(F)F)c3)cc2)ccn1.Cc1ccc(S(=O)(=O)O)cc1 [Sorafenib, 4-(4-{3-[4-chloro-3-(trifluoromethyl)phenyl]ureido}phenoxy)N^2-methylpyridine-2-carboxamide-4-methylbenzenesulfonate] | – | 1.8 | 11.2 | – | 3.9 | 14.8 | 6.1 | 15.3 | 8.4 | 30.6 | 11.7 | 0.18 | 6.8 | IC50 ([6]; SCC-25, 72 h): 2.7 µM; cytotoxicity at 0.18 µM ([7]; single agent at IC30 (sorafenib 0.18 μM; compound A 0.1 μM)): 13%; cytotoxicity at 0.18 µM ([7]; single agent at IC30 (sorafenib 0.18 μM; compound B 0.2 μM)): 13%; cytotoxicity at 1.8 µM ([4]; single agent at IC30 (sorafenib 1.8 μM; compound A 0.5 μM)): 14%; cytotoxicity at 1.8 µM ([4]; single agent at IC30 (sorafenib 1.8 μM; compound B 2.7 μM)): 13%; cytotoxicity at 3.9 µM ([8]; single agent at IC30 (sorafenib 3.9 μM; compound A 0.2 μM)): 21%; cytotoxicity at 3.9 µM ([8]; single agent at IC30 (sorafenib 3.9 μM; compound B 2.3 μM)): 21% |
